For 16 molecules, IC50 results are on record in patent US7183252B2, “Indole peptidomimetics as thrombin receptor antagonists” (Ortho-McNeil Pharmaceutical, Inc., priority 1999, dated 2007).

One assay concerns gel-filtered platelets. Kind of assay: In vitro inhibition of thrombin-induced gel-filtered platelet aggregation. The assay is classed as cell-based. The settings on record: Platelet; human gel-filtered platelets; agonist thrombin 50 μL of 1 unit/mL; read-out: Thrmb IC50 (Thrombin-induced aggregation of gel-filtered platelets). As for the experimental part:
In Vitro Inhibition of Thrombin-Induced Gel-Filtered Platelet Aggregation Assay
The percentage of platelet aggregation is calculated as an increase in light transmission of compound-treated platelet concentrate vs. control-treated platelet concentrate. Human blood is obtained from drug free, normal donors in tubes containing 0.13M sodium citrate. Platelet rich plasma (PRP) is collected by centrifugation of whole blood at 200×g for 10 min at 25° C. The PRP (5 mL) is gel filtered through Sepharose 2B (bed volume 50 mL), and the platelet count is adjusted to 2×10^7 platelets per sample. The following constituents are added to a siliconized cuvette: concentrated platelet filtrate and Tyrode's buffer (0.14M NaCl, 0.0027M KCl, 0.012M NaHCO3, 0.76 mM Na2HPO4, 0.0055M glucose, 2 mg/mL BSA and 5.0 mM HEPES @ pH 7.4) in an amount equal to 350 μL 50 μL of 20 mM calcium and 50 μL of the test compound. Aggregation is monitored in a BIODATA aggregometer for the 3 min following the addition of agonist (thrombin 50 μL of 1 unit/mL).
(§1) Table 7 contains IC50 values (μM) of the compounds in a thrombin receptor binding assay, and IC50 values (μM) against platelet aggregation stimulated by thrombin.

The target of assay [1] is T1, thrombin receptor (PAR-1) (Homo sapiens, UniProt P25116).
T1 construct: CHRF membranes (Jones, Biochim. Biophys. Acta 1992, 1136, 272) are thawed from −70° C; endogenous in cells; host or cells: CHRF cell membranes
T1 sequence (P25116 22-425): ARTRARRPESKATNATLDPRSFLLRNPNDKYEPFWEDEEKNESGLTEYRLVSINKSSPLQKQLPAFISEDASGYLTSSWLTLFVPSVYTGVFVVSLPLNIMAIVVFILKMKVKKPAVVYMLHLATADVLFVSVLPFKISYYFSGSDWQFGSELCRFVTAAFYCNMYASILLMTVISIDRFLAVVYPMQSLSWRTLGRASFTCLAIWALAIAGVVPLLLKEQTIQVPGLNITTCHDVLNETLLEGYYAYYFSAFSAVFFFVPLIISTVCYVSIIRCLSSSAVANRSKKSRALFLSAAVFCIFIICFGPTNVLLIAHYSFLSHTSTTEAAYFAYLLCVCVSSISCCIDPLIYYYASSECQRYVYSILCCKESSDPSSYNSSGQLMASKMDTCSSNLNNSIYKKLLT
The experiment in a line: In vitro thrombin receptor binding assay (CHRF membranes). The settings on record: tritiated 721-40 radioligand, read-out: Bndg IC50 (Thrombin receptor binding). As for the experimental part:
In Vitro Thrombin Receptor Binding Assay
CHRF membranes (Jones, Biochim. Biophys. Acta 1992, 1136, 272) are thawed from −70° C., centrifuged at maximum speed for 5 min, washed twice with binding buffer (50 mM HEPES containing 5 mM MgCl2 and 0.1% BSA), and re-suspended in binding buffer (25 μg/[…]). 100 μL of membranes are added to the 24-Wallac plates and delivered to the Tomtech apparatus. In a typical experiment, 6 μL of samples (from a 125 μg/mL intermediary plate, 20% DMSO) and 44 μL buffer are delivered to the plates (final conc. of compounds is 3.7 μg/mL, 0.6% DMSO). Similarly, 6 μL 20% DMSO and 44 μL buffer are delivered to both column 1 (NSB) and column 12 (TB). 10 μL Ser-pFPhe-Har-Leu-Har-Lys-Tyr-NH2 (721–40; 500 μM in deionized water) is added to column 1. 50 μL tritiated 721–40 (specific activity 46 Ci/mmol) is added to all the wells. The plates are mixed well for 20 seconds, incubated for 30 min,and then harvested with 10 mM HEPES/138 mM NaCl using the Skatron harvester. The filters (GF/C Brandel FPXLR 296) are presoaked 3 h in 0.5% polyethylenimine in HEPES/0.1M N-acetylglucosamine) are set in saran wrap and dried for 3 min in the microwave, and placed in sample bags (Wallac 1450-432). 4.5 mL scintillation fluid (Wallac, Betaplate Scint 1205-440) is added. The bags are sealed, placed in filter cassettes (Wallac 1450-104), and analyzed on the microbeta counter.
as §1

The structures appear in SMILES notation.

For the molecule `COc1ccc(C[C@H](NC(=O)Nc2ccc3c(CN4CCCC4)cn(Cc4ccc(Cl)cc4)c3c2)C(=O)N[C@@H](CCCNC(=N)N)C(=O)NCc2ccccc2)cc1` [Compound 19], the half-inhibitory concentration (IC50) (commonly the midpoint of a concentration-inhibition curve) in the assay with gel-filtered platelets was 3200 nM; in assay [1], 1600 nM.
For `NCCNC(=O)[C@H](Cc1cscn1)NC(=O)[C@H](Cc1ccc(Cl)cc1)NC(=O)Nc1ccc2c(CN3CCCC3)cn(Cc3c(Cl)cccc3Cl)c2c1` [Compound 137], in that order: 940 nM and 810 nM.
The like results for `C[C@@H](CNC(=O)[C@H](CCCNC(=N)N)NC(=O)[C@H](Cc1ccc(F)c(F)c1)NC(=O)Nc1ccc2c(CN3CCCC3)cn(Cc3c(Cl)cccc3Cl)c2c1)c1ccccc1` [Compound 83] were, in that order, 430 nM and 680 nM.
For `COc1ccc(C[C@H](NC(=O)Nc2ccc3c(CN4CCCC4)cn(Cc4cccc(OC)c4)c3c2)C(=O)N[C@@H](CCCNC(=N)N)C(=O)NCc2ccccc2)cc1` [Compound 16], in that order: 25800 nM and 11500 nM.
Regarding `NCC[C@H](NC(=O)[C@H](Cc1ccc(F)c(F)c1)NC(=O)Nc1cccc2c1c(CN1CCCC1)cn2Cc1c(Cl)cccc1Cl)C(=O)NCCN1CCCC1` [Compound 166], the concentration for half-maximal inhibition (IC50) was determined as 40300 nM with gel-filtered platelets and 2000 nM in assay [1].
The like results for `Cc1ccccc1Cn1cc(CN2CCCC2)c2ccc(NC(=O)N[C@@H](Cc3ccc(-c4ccccc4)cc3)C(=O)N[C@@H](CCCNC(=N)N)C(=O)NCc3ccccc3)cc21` [Compound 39] were, in that order, 3500 nM and 21500 nM.
For the molecule `NCCCNC(=O)[C@H](Cc1ccncc1)NC(=O)[C@H](Cc1ccc(Cl)cc1)NC(=O)Nc1ccc2c(CN3CCCC3)cn(Cc3c(Cl)cccc3Cl)c2c1` [Compound 145], the IC50 is 250 nM in the assay on gel-filtered platelets and 500 nM in assay [1].
As for `Cc1ccccc1Cn1cc(CN2CCCC2)c2ccc(NC(=O)N[C@@H](Cc3cccc4ccccc34)C(=O)N[C@@H](CCCNC(=N)N)C(=O)NCc3ccccc3)cc21` [Compound 37], the 50% inhibitory concentration (IC50) was 4400 nM in the assay on gel-filtered platelets and 20300 nM in assay [1].
The like results for `N=C(N)NCCC[C@H](NC(=O)[C@H](Cc1ccncc1)NC(=O)Nc1ccc2c(CN3CCCC3)cn(Cc3ccc(F)cc3)c2c1)C(=O)NCc1ccccc1` [Compound 24] were, in that order, 34800 nM and 4800 nM.
On to `N=C(N)NCCC[C@H](NC(=O)[C@@H]1CCCN1C(=O)Nc1ccc2c(CN3CCCC3)cn(Cc3c(Cl)cccc3Cl)c2c1)C(=O)NCc1ccccc1` [Compound 107], for which the IC50 in the assay with gel-filtered platelets came to 1800 nM; in assay [1], 8000 nM.
The like results for `COc1ccc(C[C@H](NC(=O)Nc2ccc3c(CN4CCCC4)cn(Cc4ccc(F)cc4)c3c2)C(=O)N[C@@H](CCCNC(=N)N)C(=O)NCc2ccccc2)cc1` [Compound 1] were, in that order, 830 nM and 600 nM.
For `CSCC[C@H](NC(=O)[C@H](Cc1ccc(F)c(F)c1)NC(=O)Nc1ccc2c(CN3CCCC3)cn(Cc3c(Cl)cccc3Cl)c2c1)C(=O)NCc1ccccc1` [Compound 104], in that order: 530 nM and 11200 nM.
The like results for `N=C(N)NCCC[C@H](NC(=O)[C@H](Cc1cccc(F)c1)NC(=O)Nc1ccc2c(CN3CCCC3)cn(Cc3c(Cl)cccc3Cl)c2c1)C(=O)NCc1ccccc1` [Compound 47] were, in that order, 880 nM and 1200 nM.
For `NCCCC[C@H](NC(=O)[C@H](Cc1ccc(F)c(F)c1)NC(=O)Nc1ccc2c(CN3CCCC3)cn(Cc3c(Cl)cccc3Cl)c2c1)C(=O)NCc1ccccc1` [Compound 70], the IC50 in the assay on gel-filtered platelets was 310 nM; in assay [1] it was 320 nM.
`CN1CCN(C(=O)[C@H](CCCN)NC(=O)[C@H](Cc2ccc(F)c(F)c2)NC(=O)Nc2ccc3c(CN4CCCC4)cn(Cc4c(Cl)cccc4Cl)c3c2)CC1` [Compound 114]: the IC50 in the assay on gel-filtered platelets was determined as 2400 nM; in assay [1] it was 260 nM.
For `CCN(CC)Cc1cn(Cc2ccc(F)cc2)c2cc(NC(=O)N[C@@H](Cc3ccc(OC)cc3)C(=O)N[C@@H](CCCNC(=N)N)C(=O)NCCCc3ccccc3)ccc12` [Compound 5], in that order: 2900 nM and 1800 nM.
